Here are results for two molecules from article PMC8164773 (European Journal of Medicinal Chemistry, 2021).

By EC50 is commonly meant the concentration needed to bring the measured effect to its halfway point.

One series has as its system SARS-CoV-2. The class given is cell-based. To be noted: read-out: EC50 +CP.
A short description of series [1]: Solubility studies of bisulfite prodrugs in H2O. To be noted: aqueous media, 25 °C. The class given is physicochemical.

Structures are written as SMILES.

For `COc1cccc2[nH]c(C(=O)N[C@@H](CC3CC3)C(=O)N[C@H](C=O)C[C@@H]3CCNC3=O)cc12` [1k], in the series with SARS-CoV-2, the EC50 is 270 ± 400 nM.
As to `CC(C)C[C@H](NC(=O)OCc1ccccc1)C(=O)N[C@@H](C[C@@H]1CCNC1=O)C(O)S(=O)(=O)[O-].[K+]` (some centres unmarked) [3a], the “increase in molar solubility compared to GC376” value in series [1] was “approximately 30%”.
